# Results published in the OPERA property sets (Mansouri et al. 2018).
# Settings: not given
SMILES,boiling point [°C],melting point [°C],log10 vapour pressure (mmHg),ready biodegradability,log10 Henry constant (atm·m³/mol),log10 Koc (L/kg),log10 Koa
Cc1ccc(Cc2ccc(C)cc2)cc1,286,28,–,–,–,–,–
C=COCC,35.5,-116,2.71,–,–,–,–
Nc1ccc(Cl)cc1N,229,76,–,–,–,–,–
COc1ccc(N)c([N+](=O)[O-])c1,–,124,–,not readily biodegradable,–,–,–
CN1CCN(C(=O)OC2c3nccnc3C(=O)N2c2ccc(Cl)cn2)CC1 (stereo not drawn),–,178,–,–,–,–,–
Cc1ccc(S(=O)(=O)NC(=O)NC2CCCCC2)cc1,–,175,–,–,–,–,–
CC(=O)C(C)(C)C,106,-52.5,1.5,–,–,–,–
CC=Cc1ccc(OCC)c(O)c1,–,87,–,–,–,–,–
COCC1CCCO1 (stereo not drawn),140,–,–,–,–,–,–
CCCC(O)(CC)CC,160,–,–,–,–,–,–
OCCc1ccccc1,218,-27,-1.06,readily biodegradable,-6.59,1.5,–
O=C(NC(=O)c1c(F)cccc1F)Nc1ccc(CO/N=C(/c2ccc(Cl)cc2)C2CC2)cc1,–,–,-9.39,–,–,–,–
CC12CCC(C(Br)C1=O)C2(C)C (stereo not drawn),274,76.5,–,–,–,–,–
CC(C)C(=O)OC(=O)C(C)C,183,-53.5,–,–,–,–,–
O=S(=O)(O)CS(=O)(=O)O,–,98,–,–,–,–,–
CCN(C(C)C)C(C)C,126,–,–,–,–,–,–
C#C[C@]1(O)CC[C@H]2[C@@H]3CCC4=Cc5oncc5C[C@]4(C)[C@H]3CC[C@@]21C,–,226,–,–,–,–,–
COc1c(Cl)ccc(Cl)c1C(=O)O,–,115,-4.47,–,–,1.5,–
C#C[C@]1(O)CC[C@H]2[C@@H]3CCC4=C(CCC(=O)C4)[C@H]3CC[C@@]21C,–,170,–,–,–,–,–
CN(C)C(=O)Nc1ccc(SC(F)(F)Cl)c(Cl)c1,–,114,–,–,–,–,–
CC(C)(C)C(=O)CC(=O)C(F)(F)C(F)(F)C(F)(F)F,–,38,–,–,–,–,–
C=CCCCCCCCCCCCC,233,-12,-1.82,–,–,–,–

SMILES,boiling point [°C],melting point [°C],log10 vapour pressure (mmHg),ready biodegradability,log10 Henry constant (atm·m³/mol),log10 Koc (L/kg),log10 Koa
C=C(Cl)C(=C)Cl,98,–,–,–,–,–,–
CCN(CC)C(=O)COC(=O)c1ccccc1,–,72.5,–,–,–,–,–
CCCCCCCCCCC(=O)CC,–,31,–,–,–,–,–
FC(F)=C(Cl)C(F)(F)F,6.8,-130,–,–,–,–,–
OCc1c2ccccc2cc2ccccc12,–,–,–,–,–,3.61,–
CN(N=O)c1ccccc1,–,14.7,–,–,–,–,–
[C-]#[N+]C,59.6,-45,–,–,–,–,–
O=Cc1ccc(Cl)cc1,214,47.5,–,–,–,–,–
CCN(C)C(=O)COC(=O)c1ccccc1,–,20,–,–,–,–,–
COc1c(O)cc(Cl)c(Cl)c1Cl,–,–,-3.05,not readily biodegradable,–,2.8,–
Nc1cc(N)nc(N)n1,–,250,–,–,–,–,–
O=c1cnn([C@@H]2O[C@H](CO)[C@@H](O)[C@H]2O)c(=O)[nH]1,–,158,–,–,–,–,–
CCCCCCCCCCl,204,-39.4,-0.574,–,–,–,–
CNC(=O)ON=CC(C)(C)SC,–,99,-4.46,–,–,1.5,–
CC(C)(C)C(=O)C(C)(C)C,152,-25.2,–,–,–,–,–
COc1cc(OC)cc(OC)c1,256,54.5,–,–,–,–,–
CN(C)c1ccc(N=Nc2ccccc2)cc1,–,117,-7.15,–,–,3.87,–
O=C(O)[C@H](O)[C@@H](O)[C@H](O)[C@H](O)C(O)CO (stereo partly drawn),–,146,–,–,–,–,–
COc1cc(OC)nc(N=C(O)NS(=O)(=O)c2c(Cl)nc3ccccn23)n1,–,–,-9.47,–,–,–,–
COc1cc2c(cc1OC)C1CC(=O)C(CC(C)C)CN1CC2 (stereo not drawn),–,128,–,–,–,–,–
c1ccc2occc2c1,174,–,-0.356,–,–,–,–
O=CCCl,85.5,-16.3,1.81,–,–,–,–

SMILES,boiling point [°C],melting point [°C],log10 vapour pressure (mmHg),ready biodegradability,log10 Henry constant (atm·m³/mol),log10 Koc (L/kg),log10 Koa
CCC1CCCCN1C(=O)COC(=O)c1ccccc1 (stereo not drawn),–,54.5,–,–,–,–,–
CC(=O)C=Cc1ccco1,–,39.5,–,–,–,–,–
OC[C@]1(O)OC[C@@H](O)[C@H](O)[C@@H]1O,–,134,–,–,–,–,–
CCOP(=S)(OCC)SCCS(=O)(=O)CC,–,–,–,–,–,3.22,–
O=C(O)CS,–,-16.5,-1.06,readily biodegradable,–,–,–
CCC1(CCC(C)C)C(=O)NC(=O)NC1=O,–,157,–,–,–,–,–
O=Cc1cc([N+](=O)[O-])ccc1O,–,129,–,–,–,–,–
OCC1CC23CCC1(CC2)CC3CO (stereo not drawn),–,–,–,not readily biodegradable,–,–,–
N#Cc1ccc(O)cc1,–,112,–,not readily biodegradable,–,–,–
C/C(=C\CNc1ncnc2[nH]cnc12)CO,–,208,–,–,–,–,–
Cc1cccc(CO)c1,216,–,–,–,–,–,–
CCCC[N+](CCCC)(CCCC)CCCC.[I-],–,148,–,–,–,–,–
Clc1ccc2ccc(Cl)c(Cl)c2c1Cl,–,–,–,–,–,–,8.65
CC(C)(CO)CO,208,130,–,not readily biodegradable,–,–,–
CCC(=O)Nc1ccccc1,222,106,–,not readily biodegradable,–,–,–
CCOC(=O)CC(=O)CCl,–,-8,–,–,–,–,–
CCCCCl,78.6,-123,2.01,not readily biodegradable,-1.78,–,2.72
CC(C)CCOC(=O)c1ccccc1,261,–,-0.848,–,–,–,–
CCOc1ccc(C(COCc2cccc(Oc3ccc(Cl)cc3)c2)C(F)(F)F)cc1 (stereo not drawn),–,–,-9.01,–,–,–,–
CCOP(=S)(OCC)SCC(=O)NC(C)C,–,28.5,–,–,–,–,–
CS,5.9,-123,3.18,readily biodegradable,–,–,–
Cc1ccc(C(=O)c2ccccc2)cc1,–,59.5,–,–,–,–,–

SMILES,boiling point [°C],melting point [°C],log10 vapour pressure (mmHg),ready biodegradability,log10 Henry constant (atm·m³/mol),log10 Koc (L/kg),log10 Koa
CNC[C@H](O)[C@@H](O)[C@H](O)[C@H](O)CO,–,128,–,–,–,–,–
CCCCCSCCCCC,–,-51.3,–,–,–,–,–
Cc1cc(N)ccc1N,274,64,–,–,–,–,–
NNc1cc(Cl)ccc1Cl,–,102,–,–,–,–,–
Cc1cc(OC(=O)N(C)C)nn1C(=O)N(C)C,–,69.5,-4.01,–,–,–,–
O=C(c1ccc(F)cc1)C1CCN(CCn2c(=O)[nH]c3ccccc3c2=O)CC1,–,231,–,–,–,–,–
CCCCCO,138,-78.9,0.342,readily biodegradable,-4.89,0.7,4.69
BrCCCCCBr,222,-39.5,–,–,–,–,–
Brc1ccccc1-c1ccccc1,297,1.5,–,–,–,–,–
Cc1cccnn1,214,184,–,–,–,–,–
OCC(F)(F)C(F)F,110,-15,1.17,–,-5.2,–,–
COc1cccc(C=O)c1O,266,44.5,–,–,–,–,–
O=Cc1ccc2ccccc2n1,–,71,–,–,–,–,–
C1CC2OC2CC1C1CO1 (stereo not drawn),227,–,–,not readily biodegradable,–,–,–
CN(C)CCN1C(=O)c2ccccc2Nc2cc(Cl)ccc21,–,166,–,–,–,–,–
C=C(C)C1CC=C(C=O)CC1 (stereo not drawn),240,–,–,–,–,–,–
CC(C)(Oc1ccc(Cl)cc1)C(=O)O,–,118,–,–,–,–,–
Cc1ccc(C(=O)O)c(C)c1,268,90,–,–,–,–,–
Clc1ccc(C(Cl)Cl)cc1Cl,257,–,–,–,–,–,–
O=C(O)CCCCCCCCCCF,–,36,–,–,–,–,–
O=C(O)c1cccc(Cl)c1[N+](=O)[O-],–,238,–,–,–,–,–
Cc1cccc(N=Cc2ccccc2)c1,315,31,–,–,–,–,–

# Same assay, conditions: fish
SMILES,log10 BCF,log10 biotransformation half-life (days)
COc1ccc(N)c([N+](=O)[O-])c1,0.85,-0.87
O=Cc1ccc(Cl)cc1,0.32,0.01
COc1c(O)cc(Cl)c(Cl)c1Cl,2.41,0.11
CCOP(=S)(OCC)SCCS(=O)(=O)CC,0.7,-0.67
N#Cc1ccc(O)cc1,0.91,–
CC(C)(CO)CO,0.67,–
CCCCCl,1.23,-0.45
